Measured values: patent US12258355B2, “Probes for imaging huntingtin protein” (CHDI Foundation, Inc., priority 2014, dated 2025)

Columns and labels:
[1] = system: zQ175 knock-in mice (WT, heterozygous, homozygous); experiment: In vivo PET imaging in zQ175 knock-in mouse model of Huntington's disease; conditions: for Average % SUV: i.v., 63-minute PET scan, Mean ± SD
Procedure: In Vivo Imaging with [^11C]-Compound 3 of Method 14 (5-[(5-[^11C-]-Methoxypyridin-2-yl)methoxy]-2-(pyridin-3-yl)-1,3-benzoxazole)) in a Knock-In Model of Huntington's Disease
^11C-labeled Compound 3 of Method 14 was evaluated for its ability to penetrate the central nervous system of mice following systemic administration, and its binding to the cerebellum, striatum, hippocampus, and cortex was quantitated. Three groups of animals were compared: wild-type, and mice that were heterozygous or homozygous for the zQ175 knock-in allele. (Menalled L. B. et al. Comprehensive behavioral and molecular characterization of a new knock-in mouse model of Huntington's disease: zQ175. PLoS One 2012, 7, e49838).
Forty-eight nine months old animals (16 WT, 16 heterozygous and 16 homozygous zQ175) were obtained from The Jackson Laboratory, USA. The animals were housed at the animal department of Karolinska University Hospital in a temperature (±21° C.) and humidity (±40%) controlled environment on a 12 h light/dark cycle (lights on 7:00 AM) with access to food and water ad libitum. Animals were allowed at least one week to habituate to the animal department before the start of the imaging sessions. All experiments were conducted during the light phase of the cycle.
Animals were anesthetized with inhalation of isoflurane (4-5% isoflurane in 100% oxygen). After induction of anesthesia, the isoflurane concentration was lowered to 1.5-2% (50/50 air/oxygen) and the animals were positioned in the scanner in a designated mouse bed. A cannula was inserted in the tail vein through which the radioligand was administered. A 63-minute dynamic PET scan was initiated immediately upon intravenous injection of the radioligand. Upon completion of the imaging sessions, each animal was returned to its cage.
Image and Statistical Analysis
The acquired list mode data, was reconstructed into 25 timeframes (63 min scan=4×10 s, 4×20 s, 4×60 s, 7×180 s, 6×360 s). The image reconstruction was made with a fully 3-dimensional maximum-likelihood expectation maximization algorithm (MLEM) with 20 iterations, without scatter and attenuation correction. The reconstructed dynamic PET images were co-registered to an inbuilt mouse MRI template available in PMOD, which also incorporates volumes of interest (VOI's) sets (PMOD Technologies Ltd., Zurich, Switzerland). With the help of these VOI sets, decay corrected time activity curves (TAC) were generated. The regional brain uptake values were expressed as percent standard uptake value (% SUV), which normalizes for injected radioactivity and body weight. In addition, the area under the curve (AUC) was calculated. The selected regions of interest (ROI) were: cortex, hippocampus, striatum and cerebellum.

[2] = system: recombinant tau and amyloid β1-42 (Aβ1-42) aggregates; conditions: affinity for tau aggregates versus Aβ1-42 aggregates; cited from earlier work
Q46 protein aggregates = biological target: T1, Q46 protein aggregates (Homo sapiens, UniProt P42858); experiment: Q46 radioligand binding assay (RBA); conditions: 10 nM ligand [3H3]MK-3328
T1 construct: fused on or other part: GST at the N-terminus, cut off with thrombin before the test to start aggregation; The wells held aggregated Q46 without GST
Procedure, shortened: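 Aggregates from thrombin-cleaved GST-Q46 (16 h, 37° C) at 5 μM monomer-equivalent were pre-incubated 20 min at room temperature with compound (1 μM to 30 pM) in 150 mM NaCl, 50 mM Tris pH 8.0, then 60 min at 37° C with 10 nM [^3H3]MK-3328. Bound radioactivity was filtered and counted; IC50 came from a four-parameter global fit normalized to vehicle and 3 μM unlabelled MK-3328.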

T1 sequence (P42858 with tags, fused parts or gaps with the stated changes, form open): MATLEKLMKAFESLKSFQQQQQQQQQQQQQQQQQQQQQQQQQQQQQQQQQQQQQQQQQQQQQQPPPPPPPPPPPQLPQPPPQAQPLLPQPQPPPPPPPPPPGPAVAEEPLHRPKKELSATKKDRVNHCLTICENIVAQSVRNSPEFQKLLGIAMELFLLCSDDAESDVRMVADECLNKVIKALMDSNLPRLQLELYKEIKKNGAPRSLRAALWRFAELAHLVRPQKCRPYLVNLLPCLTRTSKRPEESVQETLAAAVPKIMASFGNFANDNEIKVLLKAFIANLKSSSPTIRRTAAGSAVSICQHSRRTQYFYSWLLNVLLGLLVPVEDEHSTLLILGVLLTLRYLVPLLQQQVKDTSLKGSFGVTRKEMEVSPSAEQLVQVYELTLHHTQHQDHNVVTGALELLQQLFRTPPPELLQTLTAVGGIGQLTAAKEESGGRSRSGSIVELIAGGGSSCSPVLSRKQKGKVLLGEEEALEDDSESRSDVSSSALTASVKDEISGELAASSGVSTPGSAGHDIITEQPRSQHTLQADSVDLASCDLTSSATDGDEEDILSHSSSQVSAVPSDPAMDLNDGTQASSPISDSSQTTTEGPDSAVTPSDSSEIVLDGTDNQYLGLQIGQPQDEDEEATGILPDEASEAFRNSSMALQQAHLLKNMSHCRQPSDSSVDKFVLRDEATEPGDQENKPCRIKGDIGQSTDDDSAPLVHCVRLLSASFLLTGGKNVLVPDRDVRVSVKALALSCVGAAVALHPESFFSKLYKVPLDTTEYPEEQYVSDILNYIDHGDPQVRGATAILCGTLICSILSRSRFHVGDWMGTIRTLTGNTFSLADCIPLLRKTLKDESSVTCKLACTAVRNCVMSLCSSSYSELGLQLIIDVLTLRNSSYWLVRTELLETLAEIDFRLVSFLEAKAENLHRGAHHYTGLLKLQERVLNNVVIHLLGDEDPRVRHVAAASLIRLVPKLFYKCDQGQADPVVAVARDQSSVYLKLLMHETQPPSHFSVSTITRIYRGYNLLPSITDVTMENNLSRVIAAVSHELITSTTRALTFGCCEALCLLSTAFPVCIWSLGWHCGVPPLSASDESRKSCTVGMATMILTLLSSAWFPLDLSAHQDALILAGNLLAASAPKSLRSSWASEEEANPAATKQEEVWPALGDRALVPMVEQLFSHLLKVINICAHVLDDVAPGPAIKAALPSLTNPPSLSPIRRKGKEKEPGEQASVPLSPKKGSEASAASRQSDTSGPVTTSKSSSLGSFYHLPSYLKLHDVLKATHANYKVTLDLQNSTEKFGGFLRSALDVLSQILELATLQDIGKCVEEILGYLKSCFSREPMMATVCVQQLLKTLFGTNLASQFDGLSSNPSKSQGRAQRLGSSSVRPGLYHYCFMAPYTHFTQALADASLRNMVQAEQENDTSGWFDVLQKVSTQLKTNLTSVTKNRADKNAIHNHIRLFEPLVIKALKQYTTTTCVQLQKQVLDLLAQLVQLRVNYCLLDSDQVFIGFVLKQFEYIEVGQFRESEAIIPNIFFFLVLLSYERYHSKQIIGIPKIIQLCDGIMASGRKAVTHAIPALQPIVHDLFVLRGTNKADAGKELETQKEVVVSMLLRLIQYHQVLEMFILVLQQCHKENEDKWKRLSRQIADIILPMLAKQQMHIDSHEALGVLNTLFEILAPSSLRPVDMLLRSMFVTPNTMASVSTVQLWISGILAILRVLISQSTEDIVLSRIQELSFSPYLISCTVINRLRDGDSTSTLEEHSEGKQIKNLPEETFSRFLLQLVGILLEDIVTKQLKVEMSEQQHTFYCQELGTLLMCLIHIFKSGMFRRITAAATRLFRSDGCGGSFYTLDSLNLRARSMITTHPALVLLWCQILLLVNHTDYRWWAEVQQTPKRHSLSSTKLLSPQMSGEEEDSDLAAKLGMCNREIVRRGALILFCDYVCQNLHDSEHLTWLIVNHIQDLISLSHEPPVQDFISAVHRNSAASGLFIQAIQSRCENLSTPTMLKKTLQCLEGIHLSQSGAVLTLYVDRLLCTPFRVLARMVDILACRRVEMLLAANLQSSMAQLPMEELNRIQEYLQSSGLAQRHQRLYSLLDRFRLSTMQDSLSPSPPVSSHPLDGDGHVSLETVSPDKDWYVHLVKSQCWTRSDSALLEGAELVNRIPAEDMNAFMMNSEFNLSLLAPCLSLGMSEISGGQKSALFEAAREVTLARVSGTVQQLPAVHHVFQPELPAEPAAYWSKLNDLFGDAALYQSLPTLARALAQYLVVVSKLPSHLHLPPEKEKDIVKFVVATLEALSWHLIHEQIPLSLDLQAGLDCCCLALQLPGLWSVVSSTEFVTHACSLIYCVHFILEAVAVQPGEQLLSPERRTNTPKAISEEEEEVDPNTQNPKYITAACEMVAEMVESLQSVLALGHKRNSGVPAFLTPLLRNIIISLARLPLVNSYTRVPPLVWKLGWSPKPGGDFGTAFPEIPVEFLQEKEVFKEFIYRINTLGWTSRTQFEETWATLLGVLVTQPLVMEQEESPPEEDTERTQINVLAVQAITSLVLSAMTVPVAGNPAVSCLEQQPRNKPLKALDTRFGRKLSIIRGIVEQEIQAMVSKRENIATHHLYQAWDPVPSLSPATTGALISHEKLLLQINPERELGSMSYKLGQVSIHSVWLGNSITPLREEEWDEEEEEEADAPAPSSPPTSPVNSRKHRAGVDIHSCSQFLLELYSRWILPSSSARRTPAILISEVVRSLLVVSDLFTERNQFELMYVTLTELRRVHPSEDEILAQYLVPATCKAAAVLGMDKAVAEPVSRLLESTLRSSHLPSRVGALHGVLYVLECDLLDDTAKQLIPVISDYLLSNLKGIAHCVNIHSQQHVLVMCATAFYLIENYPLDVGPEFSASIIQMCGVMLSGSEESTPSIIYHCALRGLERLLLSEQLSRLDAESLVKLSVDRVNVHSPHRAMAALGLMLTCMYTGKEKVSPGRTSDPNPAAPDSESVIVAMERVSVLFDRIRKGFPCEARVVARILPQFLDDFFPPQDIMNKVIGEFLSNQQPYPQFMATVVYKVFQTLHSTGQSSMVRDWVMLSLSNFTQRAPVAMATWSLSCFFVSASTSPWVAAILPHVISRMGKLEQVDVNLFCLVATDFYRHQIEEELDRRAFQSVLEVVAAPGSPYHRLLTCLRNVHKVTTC

| IC50 (Q46 protein aggregates) | SMILES | also measured |
| --- | --- | --- |
|  | [11CH3]Oc1ccc(COc2ccc3oc(-c4cccnc4)nc3c2)nc1 [^11C-labeled Compound 3 of Method 14, 5-[(5-[^11C-]-Methoxypyridin-2-yl)methoxy]-2-(pyridin-3-yl)-1,3-benzoxazole] | binding of the radioligand relative to wild type ([1]; all four brain regions, mice homozygous for the zQ175 allele): Increased binding; Average % SUV ([1]; cerebellum, WT mice (n = 7)): 74.2 ± 3.0 % SUV; Average % SUV ([1]; cerebellum, het zQ175 mice (n = 7)): 78.4 ± 5.9 % SUV; Average % SUV ([1]; cerebellum, hom zQ175 mice (n = 6)): 88.2 ± 5.0 % SUV; Average % SUV ([1]; cortex, WT mice (n = 7)): 69.1 ± 3.1 % SUV; Average % SUV ([1]; cortex, het zQ175 mice (n = 7)): 75.1 ± 4.3 % SUV; Average % SUV ([1]; cortex, hom zQ175 mice (n = 6)): 93.9 ± 8.0 % SUV; Average % SUV ([1]; hippocampus, WT mice (n = 7)): 72.0 ± 3.6 % SUV; Average % SUV ([1]; hippocampus, het zQ175 mice (n = 7)): 80.3 ± 5.5 % SUV; Average % SUV ([1]; hippocampus, hom zQ175 mice (n = 6)): 104.6 ± 7.9 % SUV; Average % SUV ([1]; striatum, WT mice (n = 7)): 68.8 ± 2.7 % SUV; Average % SUV ([1]; striatum, het zQ175 mice (n = 7)): 79.7 ± 5.8 % SUV; Average % SUV ([1]; striatum, hom zQ175 mice (n = 6)): 104.4 ± 9.1 % SUV |
|  | CN(C)c1ccc(/C=C/c2nc3ccc(I)cc3[nH]2)cc1 [SBIM-3, 4-[(E)-2-(6-iodo-1H-benzimidazol-2-yl)ethenyl]-N,N-dimethylaniline] | ratio of Kd values [2]: 2.73 |
| < 100 nM | COc1ccc(C(=O)Nc2ccc3oc(-c4ccncc4)nc3c2)cc1 [4-methoxy-N-[2-(pyridin-4-yl)-1,3-benzoxazol-5-yl]benzamide] |  |
| < 100 nM | COc1ccc(C(=O)Nc2ccc3oc(-c4ccc(=O)n(C)n4)nc3c2)nc1 [5-methoxy-N-[2-(1-methyl-6-oxo-1,6-dihydropyridazin-3-yl)-1,3-benzoxazol-5-yl]pyridine-2-carboxamide] |  |
| < 100 nM | Cn1cnc(COc2ccc3oc(-c4ccncc4C#N)cc3c2)c1 [4-{5-[(1-methyl-1H-imidazol-4-yl)methoxy]-1-benzofuran-2-yl}pyridine-3-carbonitrile] |  |
| 100 to 500 nM | Cn1cc(-c2nc3cc(OCc4ccc(N)cn4)cnc3o2)cn1 [6-({[2-(1-methyl-1H-pyrazol 4-yl)-[1,3]oxazolo[5,4-b]pyridin-6-yl]oxy}methyl)pyridin-3-amine] |  |
| < 100 nM | COc1ccc(-c2ccc3oc(-c4cccnc4)nc3c2)nn1 [5-(6-methoxypyridazin-3-yl)-2-(pyridin-3-yl)-1,3-benzoxazole] |  |
| > 50 nM | COc1ccc(COc2ccc3oc(N4CCNCC4)nc3c2)nc1 [5-[(5-methoxypyridin-2-yl)methoxy]-2-(piperazin-1-yl)-1,3-benzoxazole] |  |
| < 100 nM | COc1ccc(COc2cnc3oc(-c4cccnc4)nc3c2)[n+]([O-])c1 [5-methoxy-2-({[2-(pyridin-3-yl)-[1,3]oxazolo[5,4-b]pyridin-6-yl]oxy}methyl)pyridin-1-ium-1-olate] |  |
| < 100 nM | COc1cccc(COc2ccc3oc(-c4cccnc4)nc3c2)c1 [5-[(3-methoxyphenyl)methoxy]-2-(pyridin-3-yl)-1,3-benzoxazole] |  |
| < 100 nM | COc1ccc(COc2ccc3oc(-c4ccc(NC(C)=O)nc4)nc3c2)nc1 [N-(5-{5-[(5-methoxypyridin-2-yl)methoxy]-1,3-benzoxazol-2-yl}pyridin-2-yl)acetamide] |  |
| 100 to 500 nM | COc1ccc(-c2ccc3oc(-c4cccnc4)nc3c2)nc1 [5-(5-methoxypyridin-2-yl)-2-(pyridin-3-yl)-1,3-benzoxazole] |  |
| < 100 nM | COc1ccc(COc2ccc3oc(-c4ccncc4)nc3c2)nc1 [5-[(5-methoxypyridin-2-yl)methoxy]-2-(pyridin-4-yl)-1,3-benzoxazole] |  |
| < 100 nM | Brc1ccc(COc2ccc3oc(-c4cccnc4)nc3c2)nc1 [5-[(5-bromopyridin-2-yl)methoxy]-2-(pyridin-3-yl)-1,3-benzoxazole] |  |
| < 100 nM | COc1cnc(-c2ccc3oc(-c4cccnc4)nc3c2)nc1 [5-(5-methoxypyrimidin-2-yl)-2-(pyridin-3-yl)-1,3-benzoxazole] |  |
| 100 to 500 nM | Cn1cc(-c2nc3cc(OCc4cnccn4)cnc3o2)cn1 [2-({[2-(1-methyl-1H-pyrazol-4-yl)-[1,3]oxazolo[5,4-b]pyridin-6-yl]oxy}methyl)pyrazine] |  |
